Measurements reported in patent US9499552B2, “Pyrazolo[1,5-A]pyrimidine derivative and use of anti-tumor thereof” (YANTAI UNIVERSITY, priority 2014, dated 2016).
Each block holds one molecule with its values, some of them ahead of it.

Columns and labels:
[1] = biological target: T1, mice TRPC6 (Mus musculus, UniProt Q61143); experiment: Fluorescence calcium flux (Fluo4) detection of TRPC6 activation; type: cell-based; conditions: HEK293 cells expressing mice TRPC6
T1 construct: expressed in transfected cells; host or cells: HEK293
T1 sequence (Q61143 1-930): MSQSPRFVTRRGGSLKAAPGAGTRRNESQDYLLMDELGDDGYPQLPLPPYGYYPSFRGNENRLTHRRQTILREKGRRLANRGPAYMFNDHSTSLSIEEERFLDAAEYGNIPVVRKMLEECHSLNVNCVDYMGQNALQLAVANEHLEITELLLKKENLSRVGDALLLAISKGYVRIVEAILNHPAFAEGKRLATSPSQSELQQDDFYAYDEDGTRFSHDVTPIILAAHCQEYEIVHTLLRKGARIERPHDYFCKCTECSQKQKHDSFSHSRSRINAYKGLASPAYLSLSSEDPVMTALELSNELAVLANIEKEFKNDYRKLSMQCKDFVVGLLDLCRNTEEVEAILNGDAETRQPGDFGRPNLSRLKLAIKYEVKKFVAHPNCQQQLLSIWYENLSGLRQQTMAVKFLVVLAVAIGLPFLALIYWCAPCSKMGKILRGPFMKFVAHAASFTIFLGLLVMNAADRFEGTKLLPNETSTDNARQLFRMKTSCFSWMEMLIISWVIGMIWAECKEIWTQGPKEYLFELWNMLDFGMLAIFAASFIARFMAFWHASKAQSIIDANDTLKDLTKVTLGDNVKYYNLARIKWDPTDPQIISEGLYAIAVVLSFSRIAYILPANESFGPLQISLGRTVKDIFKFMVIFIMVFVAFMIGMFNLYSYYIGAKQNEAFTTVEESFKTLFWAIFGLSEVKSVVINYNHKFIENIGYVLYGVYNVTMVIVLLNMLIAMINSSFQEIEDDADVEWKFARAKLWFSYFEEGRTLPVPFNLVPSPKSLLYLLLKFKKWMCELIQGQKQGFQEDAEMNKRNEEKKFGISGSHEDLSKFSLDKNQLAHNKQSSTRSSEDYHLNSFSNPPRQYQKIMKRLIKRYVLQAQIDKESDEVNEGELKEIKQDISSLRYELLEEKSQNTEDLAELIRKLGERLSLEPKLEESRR
Procedure: Similar fluorescence calcium flux was used to detect the effect of M085 on [Ca^2+] concentration in HEK293 cells expressing mice TRPC6. The cells were stained using Ca^2+ indicator Fluo4. At 30 s, 0.1 μM, 0.4 μM, 1.1 μM, 3.3 μM, 10 μM, 30 μM of M085 were added. […] Wherein, M086 was subjected to fluorescent calcium flux detection and fluorescent membrane potential detection, respectively.

[2] = biological target: T2, TRPC6 ion channels (Mus musculus, UniProt Q61143); experiment: Fluorescent membrane potential (FMP) detection of TRPC6 activation; type: cell-based; conditions: M085 at 0.4 μM~30 μM; HEK293 cells permanently transfected with TRPC6
T2 construct: expressed in transfected cells; host or cells: HEK293 co-expressing M5 muscarinic receptor
T2 sequence (Q61143 1-930): T1 sequence (Q61143 1-930)
Procedure: Pyrazolopyrimidines and their derivatives activated TRPC6 ion channels (FIG. 1). In HEK293 cells permanently transfected with TRPC6 ion channels, M085 was used as activator to detect the fluorescent membrane potential. Firstly, cells were stained with FLIPR membrane potential dyes (FMP). At 30 s, 0.1 μM, 0.4 μM, 1.1 μM, 3.3 μM, 10 μM, 30 μM of M085 were added, respectively.

[3] = system: HEK293 cells which were not transfected with TRPC6 ion channels; experiment: Fluorescent membrane potential detection in non-transfected control cells; type: cell-based; conditions: M085 0.1-30 μM
[4] = biological target: T3, TRPC6 channel (Mus musculus, UniProt Q61143); experiment: Whole-cell patch clamp assay, TRPC6 activation; type: cell-based; conditions: for activation effect for TRPC6 channel (whole-cell patch clamp): HEK293 cells clamped at -100~+100 mV
T3 construct: expressed in transfected cells; host or cells: HEK293
T3 sequence (Q61143 1-930): T1 sequence (Q61143 1-930)
Description: HEK293 cells were clamped at −100˜+100 mV in the whole-cell recording mode.

[5] = biological target: T3, TRPC6 channel; experiment: Whole-cell patch clamp assay, TRPC6 inhibition (carbachol-activated); type: cell-based; conditions: for inhibition of TRPC6 channel (whole-cell patch clamp): HEK293 cells clamped at -100~+100 mV
Procedure: M107 is representative (FIG. 3B, C). HEK293 cells were clamped at −100˜+100 mV in whole-cell recording mode. TRPC6 ion channels activated by carbachol (CCh, 30 μM) was inhibited by M107 (20 μM). At −100˜+100 mV, 20 μM of M107 provided 60% and 20% of inhibition rate for CCh (n=5).

[6] = system: MCF7 human breast cancer cell line; experiment: MTT cytotoxic activity, MCF7; type: cell-based; conditions: 72 h, read-out: IC50 cytotoxic activity in vitro
Procedure: (§1) After the cells in logarithmic growth phase were digested with 0.25% trypsin-EDTA, a cell suspension at a certain concentration was prepared. Depending on cell growth rate, they were inoculated in 96-well plates at 1000-2000 cells/well. To each well 100 μL of the cell suspension was added. After 24 h, fresh medium containing various concentrations of the compounds or the corresponding solvent were added at 100 μL per well (DMSO final concentration <0.1%). 5 to 7 dose groups were arranged for each test compound. Each group comprised at least 3 parallel wells. After further culturing at 37° C. for 72 h, the supernatant was discarded. 100 μL of fresh serum-free medium containing 0.5 mg/mL MTT was added to each well, further cultured for 2 h. After the supernatant was discarded, to each well was added 200 μL DMSO to dissolve MTT formazan precipitate. After mixing homogeneously by a microoscillator, optical density (OD) was measured at 450 nm of reference wavelength, and at 570 nm of detection wavelength by a Microplate reader. The tumor cells treated by the solvent control was used as the control group. The inhibition rate of tumor cells for the compounds were calculated by the following equation and IC50 was calculated by the half of inhibition equation: […]

[7] = system: Lncap human prostate cancer cell line; experiment: MTT cytotoxic activity, Lncap; type: cell-based; conditions: 72 h, read-out: IC50 cytotoxic activity in vitro
Procedure: as §1

[8] = system: RM-1 mouse prostate cancer cell line; experiment: MTT cytotoxic activity, RM-1; type: cell-based; conditions: RM-1, MTT, 72 h; read-out: IC50 cytotoxic activity in vitro
Procedure: as §1

[9] = system: Du145 human prostate cancer cell line; experiment: MTT cytotoxic activity, Du145; type: cell-based; conditions: 72 h, read-out: IC50 cytotoxic activity in vitro
Procedure: as §1

[10] = system: KB human oral epithelium carcinoma cell line; experiment: MTT cytotoxic activity, KB; type: cell-based; conditions: 72 h, read-out: IC50 cytotoxic activity in vitro
Procedure: as §1

[11] = system: prostate cancer RM-1 transplanted tumor; experiment: Mice prostate cancer RM-1 transplanted tumor model; type: in vivo; conditions: for Inhibition rate of tumor growth / Tumor weight / body weight of Animals, Final / body weight of Animals, Initial: male C57/BL6 mice, i.p., Docetaxel 10 mg/kg × 3, M110 50 mg/kg × 4
Procedure: Male C57/BL6 mice (18-22 g) were used. The experiment procedures are summarized as follows: mice who had prostate cancer RM-1 and grown well were sacrificed by cervical dislocation. Under sterile conditions, tumor mass growing well was stripped off, homogenized, diluted with physiological saline in 1:4. Each mouse was inoculated 0.2 mL of the tumor solution in the armpit and back (approximately 2*10^6 cells). On the next day, the animals were randomized into groups and the administration began. Compound M110 was administered at 50 mg/kg by intraperitoneal injection at 24 h after inoculation. The dosing volume was 0.1 mL/10 g. At the same time, docetaxel control group and solvent control group were set. As for the docetaxel group, the animals were administered by intraperitoneal injection at 10 mg/kg dose, the dosing volume was 0.1 mL/10 g. After continuous administration for 10 days, the animals were sacrificed by cervical dislocation, weighed the body and the tumor, respectively. Inhibition rate of tumor growth (%) was calculated, and the results were statistically processed.

[12] = system: Pc3 human prostate cancer cell line; experiment: MTT cytotoxic activity, Pc3; type: cell-based; conditions: 72 h, read-out: IC50 cytotoxic activity in vitro
Procedure: as §1

[13] = system: H460 human lung cancer cell line; experiment: MTT cytotoxic activity, H460; type: cell-based; conditions: 72 h, read-out: IC50 cytotoxic activity in vitro
Procedure: as §1

- activating effect for TRPC6 ion channel (fluorescence calcium flux) [1]: exhibited activating effect
- intracellular [Ca2+] ([1]; M085 at 3.3 μM~30 μM, Fluo4): significantly increased
- membrane depolarization (FMP fluorescence) [2]: increase of membrane depolarization
- activation effect for TRPC6 channel (whole-cell patch clamp) [4]: have activation effect
- EC50 ([4]; HEK293 cells, concentration response 0.04-10 μM, n=5-7): 2.5 µM
SMILES: CCOC(=O)N1CCC(c2cc(O)n3nc(C)c(-c4ccc(F)cc4)c3n2)CC1 [Compound M085]
- fluorescent change (FMP) [3]: no significantly fluorescent change

- activating effect for TRPC6 ion channel (fluorescence calcium flux) [1]: exhibited activating effect
- activation effect for TRPC6 channel (whole-cell patch clamp) [4]: have activation effect
SMILES: Cc1nn2c(O)cc(C3CCN(C(=O)OCc4ccccc4)CC3)nc2c1-c1ccc(F)cc1 [Compound M086]

- activating effect for TRPC6 ion channel (fluorescence calcium flux) [1]: exhibited activating effect
- activation effect for TRPC6 channel (whole-cell patch clamp) [4]: have activation effect
SMILES: Cc1nn2c(O)cc(C3CCN(C(=O)OCc4ccccc4)CC3)nc2c1-c1ccc(Cl)cc1 [Compound M091]

- activating effect for TRPC6 ion channel (fluorescence calcium flux) [1]: exhibited activating effect
- activation effect for TRPC6 channel (whole-cell patch clamp) [4]: have activation effect
SMILES: CCOC(=O)N1CCC(c2cc(O)n3nc(C)c(-c4ccc(C(F)(F)F)cc4)c3n2)CC1 [Compound M092]

- inhibition rate for CCh-activated TRPC6 current, first value ([5]; 20 μM compound, CCh 30 μM, at -100~+100 mV (first printed, -100 mV), n=5): 60%
- inhibition rate for CCh-activated TRPC6 current, second value ([5]; 20 μM compound, CCh 30 μM, at -100~+100 mV (second printed, +100 mV), n=5): 20%
- inhibition of TRPC6 channel (whole-cell patch clamp) [5]: inhibited TRPC6 channel
SMILES: Cc1nn2c(O)cc(C3CCN(C(=O)OC(C)(C)C)CC3)nc2c1-c1ccc(F)cc1 [Compound M107]

- inhibition of TRPC6 channel (whole-cell patch clamp) [5]: inhibited TRPC6 channel
SMILES: CCOC(=O)N1CCC(C)(c2cc(O)n3nc(C)c(-c4ccc(F)cc4)c3n2)CC1 [Compound M110]
- IC50 [6]: 12.1 µM
- IC50 [7]: 4.33 µM
- IC50 [8]: 25.6 µM
- IC50 [9]: > 100 µM
- IC50 [10]: 9.47 µM
- Inhibition rate of tumor growth [11]: 23%
- Tumor weight [11]: 2.0 ± 0.73 g
- body weight of Animals, Final [11]: 21.33 ± 1.51 g
- body weight of Animals, Initial [11]: 20.00 ± 0.76 g
- pharmacological activity in vivo on RM-1 transplanted tumor growth ([11]; mice): inhibit growth of prostate cancer RM-1 transplanted tumor
- IC50 [12]: 30.8 µM
- IC50 [13]: 21.9 µM

SMILES: CC(=O)O[C@@]12CO[C@@H]1C[C@H](O)[C@@]1(C)C(=O)[C@H](O)C3=C(C)[C@@H](OC(=O)[C@H](O)[C@@H](NC(=O)OC(C)(C)C)c4ccccc4)C[C@@](O)([C@@H](OC(=O)c4ccccc4)[C@H]21)C3(C)C [Docetaxel, docetaxel, reference compound]
- Inhibition rate of tumor growth [11]: 32%
- Tumor weight [11]: 1.77 ± 0.61 g
- body weight of Animals, Final [11]: 18.43 ± 2.17 g
- body weight of Animals, Initial [11]: 20.00 ± 1.07 g
